These results are taken from paper PMC2888647 (Journal of medicinal chemistry, 2009).

The conditions of data set [1]: estimated; cited from earlier work.
The target in the next data set is T1, recombinant human sEH (Homo sapiens, UniProt P34913).
T1 sequence (P34913 1-555): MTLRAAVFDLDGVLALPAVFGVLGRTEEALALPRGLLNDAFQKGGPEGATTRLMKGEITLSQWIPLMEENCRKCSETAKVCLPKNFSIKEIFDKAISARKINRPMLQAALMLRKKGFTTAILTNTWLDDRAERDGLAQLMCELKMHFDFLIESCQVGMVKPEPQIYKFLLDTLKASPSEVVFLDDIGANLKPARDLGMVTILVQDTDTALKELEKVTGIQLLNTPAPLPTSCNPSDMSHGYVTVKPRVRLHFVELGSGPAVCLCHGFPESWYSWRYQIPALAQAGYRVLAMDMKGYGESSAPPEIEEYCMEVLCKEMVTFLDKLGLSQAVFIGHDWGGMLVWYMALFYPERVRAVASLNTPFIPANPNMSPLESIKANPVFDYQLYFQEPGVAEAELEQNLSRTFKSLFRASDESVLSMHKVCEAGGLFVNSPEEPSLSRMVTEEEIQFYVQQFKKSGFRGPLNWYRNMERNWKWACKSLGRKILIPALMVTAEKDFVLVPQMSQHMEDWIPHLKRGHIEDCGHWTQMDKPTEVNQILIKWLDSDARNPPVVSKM
It counts as biochemical. The settings on record: relative to compound 1.

Consider `CCCCC[C@@H]1O[C@@H]1C/C=C\C/C=C\C/C=C\CCCC(=O)O` [14,15-EET, cis-14,15-epoxyeicosa-5(Z),8(Z),11(Z)-trienoic acid], for which the in vivo half-life result in data set [1] was “a few seconds to minutes”.
With `CCCCCNC(=S)NCCCC/C=C\CCCCCCC(=O)O` [Compd 5, 13-(3-n-Pentylthioureido)tridec-8(Z)-enoic acid], on recombinant human sEH, the “decline of sEHi, factor with respect to 1” value was 16.
